The numbers were not newly measured in US20260125514A1, “CROSSLINKED POLYMERS AND THEIR USES” (UNIVERSITÉ CÔTE D'AZUR, priority 2022, published 2026), which cites them from elsewhere.

For the data set the following is noted: free, non crosslinked caulerpenyne; Parent-Massin (1996).

Turning to `CC(=O)O/C=C(/C=C/OC(C)=O)[C@H](C/C=C(\C)C#CC=C(C)C)OC(C)=O` [caulerpenyne, Caulerpenyne], the toxicity entry is reported as “toxicity”.
